The text below walks through data of US12077503B2, “Substituted cyclic amides and their use as herbicides” (FMC CORPORATION, priority 2015, dated 2024).

The structures appear in SMILES notation.

Common to all, as to type: in vivo
Test [1] relates to Kochia (Kochia scoparia). Kind of test: Test A preemergence. The following applies: Bassia scoparia, pre-emergence, 240 h, preemergence, read-out: Kochia plant response rating. A digest of the protocol: (§1)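 Greenhouse, ~10 d after spray; visual injury vs untreated controls, 0 = no effect, 100 = complete control. Preemergence: directed soil spray over planted seeds. Postemergence: plants 2–10 cm, 1–2 leaf stage. Loam/sand blend. Compound in non-phytotoxic solvent with surfactant.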

Test [2] has as its system barnyardgrass (Echinochloa crus-galli). Briefly: Test A preemergence. Particulars: Echinochloa crus-galli, pre-emergence, 240 h, preemergence, read-out: Barnyardgrass plant response rating. A digest of the protocol: as §1
The test system of test [3] is giant foxtail (Setaria faberii). Kind of test: Test A preemergence. Particulars: Setaria faberi, pre-emergence, 240 h, preemergence, read-out: Foxtail, Giant plant response rating. A digest of the protocol:
as §1

Test [4] relates to pigweed (Amaranthus retroflexus). Kind of test: Test A preemergence. Particulars: Amaranthus retroflexus, pre-emergence, 240 h, preemergence, read-out: Pigweed plant response rating.
Test [5] deals with ragweed (common ragweed, Ambrosia elatior). Kind of test: Test A preemergence. Particulars: Ambrosia artemisiifolia, pre-emergence, 240 h, 500 g ai/ha, preemergence; visual injury rating about 10 d after treatment, 0 to 100 scale (0 no effect, 100 complete control); read-out: Ragweed plant response rating. A digest of the protocol: as §1
Test [6] has as its system ryegrass, Italian (Italian ryegrass, Lolium multiflorum). Briefly: Test A preemergence. The following applies: Lolium multiflorum, pre-emergence, 240 h, 500 g ai/ha, preemergence; visual injury rating about 10 d after treatment, 0 to 100 scale (0 no effect, 100 complete control); read-out: Ryegrass, Italian plant response rating. A digest of the protocol: as §1
Test [7] deals with Galium (catchweed bedstraw, Galium aparine). Briefly: Test A postemergence. Particulars: Galium, post-emergence, 240 h, 125 g ai/ha, Postemergence; visual injury after approximately 10 d; 0 to 100 scale where 0 is no effect and 100 is complete control; read-out: Plant response rating, Galium. A digest of the protocol: as §1
In test [8] the test system is Kochia (Kochia scoparia). Briefly: Test A postemergence. The following applies: Bassia scoparia, post-emergence, 240 h, 125 g ai/ha, Postemergence; visual injury after approximately 10 d; 0 to 100 scale where 0 is no effect and 100 is complete control; read-out: Plant response rating, Kochia. A digest of the protocol:
as §1

In test [9] the test system is giant foxtail (Setaria faberii). Kind of test: Test A postemergence. Particulars: Setaria faberi, post-emergence, 240 h, 125 g ai/ha, Postemergence; visual injury after approximately 10 d; 0 to 100 scale where 0 is no effect and 100 is complete control; read-out: Plant response rating, Foxtail, Giant. A digest of the protocol:
as §1

Test [10] relates to pigweed (Amaranthus retroflexus). Kind of test: Test A postemergence. The following applies: Amaranthus retroflexus, post-emergence, 240 h, 125 g ai/ha, Postemergence; visual injury after approximately 10 d; 0 to 100 scale where 0 is no effect and 100 is complete control; read-out: Plant response rating, Pigweed. A digest of the protocol: as §1
The test system of test [11] is wheat (Triticum aestivum). Briefly: Test A postemergence. The following applies: Triticum aestivum, post-emergence, 240 h, 125 g ai/ha, Postemergence; visual injury after approximately 10 d; 0 to 100 scale where 0 is no effect and 100 is complete control; read-out: Plant response rating, Wheat. A digest of the protocol:
as §1

The test system of test [12] is barnyardgrass (Echinochloa crus-galli). Briefly: Test B flooded paddy test. The following applies: Echinochloa crus-galli, Flood, 250 g ai/ha; scale of 0 to 100 where 0 is no effect and 100 is complete control; read-out: Barnyardgrass plant response rating. A digest of the protocol:
(§2)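 Flooding to 3 cm over soil accompanied treatment, which consisted of adding compound to the standing water around 2-leaf plants; depth was then maintained. Visual assessment versus controls followed at 13 to 15 d (scale 0–100, 0 meaning no effect).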

Test [13] relates to ducksalad (Heteranthera limosa). Kind of test: Test B flooded paddy test. Particulars: Heteranthera limosa, Flood, 250 g ai/ha; scale of 0 to 100 where 0 is no effect and 100 is complete control; read-out: Ducksalad plant response rating. A digest of the protocol: as §2
The next test relates to rice (Oryra sativa). Kind of test: Test B flooded paddy test. The following applies: Oryza sativa, Flood, 250 g ai/ha; scale of 0 to 100 where 0 is no effect and 100 is complete control; read-out: Rice plant response rating. A digest of the protocol: as §2
Test [14] has as its system sedge, umbrella (small-flower umbrella sedge, Cyperus difformis). Briefly: Test B flooded paddy test. The following applies: Cyperus difformis, Flood, 250 g ai/ha; scale of 0 to 100 where 0 is no effect and 100 is complete control; read-out: Sedge, Umbrella plant response rating. A digest of the protocol:
as §2

[15] abbreviates: 125 g ai/ha, 0 to 100 scale where 0 is no effect and 100 is complete control.
The mark [16] stands for this setting: 500 g ai/ha, visual injury rating about 10 d after treatment, 0 to 100 scale (0 no effect, 100 complete control).

In the case of `O=C1NC[C@H](c2cccc(C(F)(F)F)n2)[C@H]1C(=O)Nc1ccccc1F` [Compound 940], the pest or weed control at 125 g/ha in the test with Kochia (Kochia scoparia) [1] (setting [15]) stood at 0%; in [2] (setting [15]), 30%; in test [3] (setting [15]), 40%; in test [4] (setting [15]) it was 0%; in test [7], 0%; with Kochia (Kochia scoparia) [8], 0%. Also, the pest or weed control at 125 g/ha in test [9] and in test [10] was 0% in each case. The pest or weed control at 500 g/ha in the test with Kochia (Kochia scoparia) [1] (setting [16]) was 0%; in test [2] (setting [16]), 70%; in test [3] (setting [16]), 90%; in [4] (setting [16]) it was 0%; in test [5], 0%; in [6] it was 0%. Besides, in test [11], the plant injury at 125 g/ha amounted to 0%. Also, the pest or weed control at 250 g/ha (in test [12]; in test [13]; in the test on rice (Oryra sativa); in test [14]) was 0% in each case.
